Structures can show the parent of a compound that is named as a salt.
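Further: Luminescence-based viability readout, five doses per compound, normalized against on-plate DMSO and empty-well controls, followed by dose-response curve fitting for every drug.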

The test has as its system HCT116. Briefly: efficacy (fitted maximal change in viability relative to DMSO control); higher = less cytotoxic (negative = loss of viability). The conditions noted are these: 48 h.
In the case of `O=c1sn(-c2cccc3ccccc23)c(=O)n1Cc1ccccc1` [Tideglusib], the efficacy is -7.08%.

With `CN(C)[C@H]\1[C@@H]2C[C@@H]\3CC4=C(C(=C(NC(=O)CNC(C)(C)C)C=C4N(C)C)O)C(=O)C3=C(O)/[C@@]2(O)C(=O)\C(=C1O)C(N)=O` [Tigecycline], the efficacy was -18.8%.

Turning to `O=c1oc2cc(O)ccc2s1` [Tioxolone], the efficacy was -6.66%.

Turning to `O=C(O)C(=O)c1cn(Cc2ccccc2)c2ccc(-c3ccc(OC(F)(F)F)cc3)cc12` [Tiplasinin], the efficacy is -22.4%.

For `NC[C@H]1O[C@H](O[C@H]2[C@H](O)[C@@H](O[C@H]3O[C@H](CO)[C@@H](O)[C@H](N)[C@H]3O)[C@H](N)C[C@@H]2N)[C@H](N)C[C@@H]1O` [Tobramycin], the efficacy is -8.81%.

In the case of `Cc1ccc(C(=O)c2cc(O)c(O)c([N+](=O)[O-])c2)cc1` [Tolcapone], the efficacy is -83.1%.

Regarding `CC1=CC(=CC=C1)OC/2=C/NC(=O)/N=C2` [Tolimidone], the efficacy was determined as 6.41%.

Consider `Cc1cccc(N(C)C(=S)Oc2ccc3ccccc3c2)c1` [Tolnaftate], for which the efficacy is -28.8%.

`Cc1ccc(O)c(C(CCN(C(C)C)C(C)C)c2ccccc2)c1.Cl` (centres undefined) [Tolterodine tartrate]: the efficacy is -19.8%.

Regarding `Cc1ccccc1C(=O)Nc1ccc(C(=O)N2CCCC(O)c3cc(Cl)ccc32)c(C)c1` (centres undefined) [Tolvaptan], the efficacy was -64.3%.

Take `COc1ccc(/C=C/C(=O)Nc2ccccc2C(=O)O)cc1OC` [Tranilast]: the efficacy was -8.29%.

For `N[C@@H]1C[C@H]1c1ccccc1` [Tranylcypromine], the efficacy was -9.58%.

As for `CC1=C(/C=C/C(C)=C/C=C/C(C)=C/C(=O)O)C(C)(C)CCC1` [Tretinoin], the efficacy is -22.5%.

For the compound `NC(=S)N/N=C/c1ncccc1N` [Triapine], the efficacy is -21.4%.

For `N[S+](=O)([O-])c1cc2c(cc1Cl)NC(C(Cl)Cl)N[S+]2(=O)[O-]` (centres undefined) [Trichlormethiazide], the efficacy was 6.79%.

For `CC1=CC2=C(O1)C(=C3OC(=O)\C=C(C)/C3=C2)C` [Trioxsalen], the efficacy was -19.8%.

`O=C(CCCCCCC(=O)Nc1ccc([C@H]2O[C@@H](CSc3nc(-c4ccccc4)c(-c4ccccc4)o3)C[C@@H](c3ccc(CO)cc3)O2)cc1)NO` [Tubacin]: the efficacy was -23.7%.

As for `CC(C)OC(=O)/C1=C/N(CC(C)(C)C2=C1[NH]C3=CC=CC=C23)C(=O)C4=CC=C(F)C(=C4)F` [Turofexorate isopropyl], the efficacy was -17.9%.

For `N#C/C(=C\c1ccc(O)c(O)c1)C(=O)NCc1ccccc1` [Tyrphostin B42], the efficacy was -71.9%.

For `COc1cc2c(NC3CCN(C)CC3)nc(N3CCCN(C)CC3)nc2cc1OCCCN(C)C` [UNC-0224], the efficacy is -57.9%.

In the case of `O=C(c1ccc(C(=O)N2CCC(N3CCCC3)CC2)c(Nc2ccccc2)c1)N1CCC(N2CCCC2)CC1` [UNC-1215], the efficacy was -10.4%.

As for `CCCC\1=C(/CNC(=O)C2=CC(=CC3=C2C=N[N]3C(C)C)C4=CC=C(N=C4)N5CCN(CC5)C(C)C)C(=O)NC(=C1)\C` [UNC-1999], the efficacy is -25.5%.

As to `CCN(CC)CCCC[C@H](NC(=O)[C@H](CC(C)C)NC(=O)[C@H](C)NC(=O)[C@H](Cc1ccccc1)NC(=O)c1ccc(C(C)(C)C)cc1)C(=O)N[C@@H](CO)C(=O)OC` [UNC-3866], the efficacy was -18.9%.

`OC[C@H]1O[C@H]([C@H](O)[C@@H]1O)N2\C=C/C(=O)NC2=O` [Uridine]: the efficacy was -9.88%.

With `C[C@@H]1CC[C@@]2(CC[C@]3(C)\C(=C/C[C@@H]4[C@@]5(C)CC[C@H](O)C(C)(C)[C@@H]5CC[C@@]34C)[C@@H]2[C@H]1C)C(O)=O` [Ursolic acid], the efficacy is 6.32%.

As for `CC[C@H](NC(=O)[C@H](C[S+](=O)([O-])CC1CC1)N[C@@H](c1ccc(F)cc1)C(F)(F)F)C(=O)C(=O)NC1CC1` [VBY-825], the efficacy was -25.3%.

In the case of `C[S+](=O)([O-])c1ccc(-c2cnc(N)c(C(=O)Nc3ccccc3)n2)cc1` [VE-821], the efficacy is -26.1%.

Take `CC(C)(C)C#Cc1cc(N(C(=O)[C@H]2CC[C@H](C)CC2)[C@H]2CC[C@@H](O)CC2)c(C(=O)O)s1` [VX-222]: the efficacy is -59.3%.

Turning to `FC1=CC=C(SC/2=N/N3\C=N/C(=O)/C(=C3/C=C2)C4=C(Cl)C=CC=C4Cl)C(=C1)F` [VX-745], the efficacy was -34.7%.

For `CCO[C@@H]1OC(=O)C[C@@H]1NC(=O)[C@@H]1CCCN1C(=O)[C@@H](NC(=O)c1ccc(N)c(Cl)c1)C(C)(C)C` [VX-765], the efficacy is 23.5%.

Consider `O=C(O)CNC(=O)c1ncc(-c2cccc(Cl)c2)cc1O` [Vadadustat], for which the efficacy is -15.6%.

Take `CC(C)[C@H](N)C(=O)OCCOC[N]1C=NC2=C1\N=C(N)/NC2=O` [Valaciclovir]: the efficacy came out at 8.42%.

On to `Cc1onc(-c2ccccc2)c1-c1ccc([S+](N)(=O)[O-])cc1` [Valdecoxib], for which the efficacy is -36.8%.

On to `CCCC(CCC)C(=O)[O-]` [Valproic acid sodium salt], for which the efficacy worked out at 14%.

Take `CN[C@H](CC(C)C)C(=O)N[C@H]1C(=O)N[C@@H](CC(N)=O)C(=O)N[C@H]2C(=O)N[C@H]3C(=O)N[C@H](C(=O)N[C@H](C(=O)O)c4cc(O)cc(O)c4-c4cc3ccc4O)[C@H](O)c3ccc(c(Cl)c3)Oc3cc2cc(c3O[C@@H]2O[C@H](CO)[C@@H](O)[C@H](O)[C@H]2O[C@H]2C[C@](C)(N)[C@H](O)[C@H](C)O2)Oc2ccc(cc2Cl)[C@H]1O` [Vancomycin hydrochloride]: the efficacy is -27%.

With `O=C(O)CC/C=C\CC[C@@H]1[C@@H](N2CCCCC2)[C@@H](O)C[C@@H]1OCc1ccc(-c2ccccc2)cc1` [Vapiprost hydrochloride], the efficacy is -23.2%.

With `CCCC1=NC(=C2[N]1NC(=N\C2=O)/C3=CC(=CC=C3OCC)[S+]([O-])(=O)N4CCN(CC)CC4)C` [Vardenafil], the efficacy is -19.1%.

For the compound `CCc1c(C(=O)C(N)=O)c2c(OCC(=O)O)cccc2n1Cc1ccccc1` [Varespladib], the efficacy was -27.8%.

On to `Clc1ccc(Nc2nnc(Cc3ccncc3)c3ccccc23)cc1` [Vatalanib], for which the efficacy is -27.3%.

Consider `CC(=O)O[C@H]1C[C@@H]2CC[C@@H]3[C@H](CC[C@@]4(C)[C@H]3C[C@H]([N+]3(C)CCCCC3)[C@@H]4OC(C)=O)[C@@]2(C)C[C@@H]1N1CCCCC1.[Br-]` [Vecuronium bromide], for which the efficacy was -10.9%.

As to `O=C(O)[C@@H](c1ccc(OCc2ccc3ccccc3n2)cc1)C1CCCC1` [Veliflapon], the efficacy is -10.1%.

Turning to `C[C@]1(c2nc3c(C(N)=O)cccc3[nH]2)CCCN1` [Veliparib], the efficacy is -31.3%.

Regarding `CCC[S+](=O)([O-])Nc1ccc(F)c(C(=O)c2c[nH]c3ncc(-c4ccc(Cl)cc4)cc23)c1F` [Vemurafenib], the efficacy is 9.66%.

`CC1(C)CCC(=C(\C1)C2=CC=C(Cl)C=C2)/CN3CCN(CC3)C4=CC(=C(C=C4)C(=O)N[S+]([O-])(=O)C5=CC=C(NCC6CCOCC6)C(=C5)[N+]([O-])=O)OC7=CN=C8[NH]C=CC8=C7` [Venetoclax (ABT-199)]: the efficacy was -73.3%.

`CCCCOc1nc(N)c2c(n1)N(Cc1cccc(CN3CCCC3)c1)CC(=O)N2` [Vesatolimod]: the efficacy was -47.6%.

`COc1ccc(C(=O)N2CCN(c3ccc4c(c3)CCC(=O)N4)CC2)cc1OC` [Vesnarinone]: the efficacy is -21.4%.

On to `Nc1ncnc2c1ncn2[C@@H]1O[C@H](CO)[C@@H](O)[C@@H]1O` [Vidarabine], for which the efficacy was -11.4%.

Turning to `C[S+](=O)([O-])c1ccc(C(=O)Nc2ccc(Cl)c(-c3ccccn3)c2)c(Cl)c1` [Vismodegib], the efficacy was -23.8%.

Take `CCOC(=O)N[C@@H]1CC[C@@H]2[C@@H](C1)C[C@H]1C(=O)O[C@H](C)[C@H]1[C@H]2/C=C/c1ccc(-c2cccc(F)c2)cn1` [Vorapaxar]: the efficacy was -40.6%.

In the case of `C[C@@H](c1ncncc1F)[C@](O)(Cn1cncn1)c1ccc(F)cc1F` [Voriconazole], the efficacy was -12.1%.

On to `O=C(CCCCCCC(=O)Nc1ccccc1)NO` [Vorinostat (SAHA)], for which the efficacy is -81%.

Consider `CN[C@@H]1CN(C[C@H]1OC)C2=NC3=C(C=C2)C(=O)C(=C\N3C4=NC=CS4)/C(O)=O` [Vosaroxin], for which the efficacy is -17.8%.

On to `Cc1c(F)ccc(C(=O)Nc2cc([N+](=O)[O-])ccc2N2CCN(C)CC2)c1Cl` [WDR5-C47], for which the efficacy was -7.44%.

In the case of `COc1cc2ncnc(Nc3cc(Br)c(O)c(Br)c3)c2cc1OC` [WHI-P97], the efficacy was -37.8%.

Turning to `C[C@H](NC(=O)/C(C#N)=C/c1cccc(Br)n1)c1ccccc1` [WP-1066], the efficacy is -83.5%.

As to `Cc1cc(-c2ccc(CC(=O)Nc3ccc(-c4cccnc4)cc3)cc2)ccn1` [Wnt-C59], the efficacy was -33.8%.

In the case of `O=C(Nc1ccc(-c2ccnc(Nc3ccc(N4CCOCC4)cc3)n2)cc1)C1CCCN1` (centres undefined) [XL-019], the efficacy was -19.1%.

In the case of `Cc1ccc([S+](=O)([O-])Nc2nc3ccccc3nc2Nc2ccc3nsnc3c2)cc1` [XL-147], the efficacy was -12%.

As to `CC1=CC(=CC(=C1C\C2=N\CCN2)C)C(C)(C)C` [Xylometazoline hydrochloride], the efficacy is -32.9%.

As for `N#Cc1ccc(N(Cc2ccc(Br)cc2)n2cnnc2)cc1` [YM-511], the efficacy was -14.3%.

For `COC(=O)[C@@H]1[C@H]2C[C@H]3c4[nH]c5ccccc5c4CCN3C[C@@H]2CC[C@@H]1O` [Yohimbine], the efficacy was -8.81%.

On to `CC(C(=O)O)c1ccc2c(c1)CC(=O)c1ccccc1S2` (centres undefined) [Zaltoprofen], for which the efficacy was found to be 8.02%.

Turning to `OC[C@H]1O[C@H]([C@H](O)[C@@H]1O)N2/C=C\C=N/C2=O` [Zebularine], the efficacy is -11.7%.

With `CC(c1cc2ccccc2s1)N(O)C(N)=O` (centres undefined) [Zileuton], the efficacy was -26.8%.
